In patent EP4725948A1, “PYRROLO[2,3-D]PYRIMIDIN-4-AMINE DERIVATIVE AND USE THEREOF IN MEDICINE” (Haisco Pharmaceutical Group Co., Ltd., priority 2023, dated 2024):

What was measured:
[1] = target: T1, sGC protein (Homo sapiens, UniProt Q02108+Q02153); assay: cGMP detection experiment in LNCap cells; format: cell-based; details: cGMP production in LNCap cells; 20 µM DETA-NO pre-incubation; relative to compound A
T1 construct: LNCap is a human prostate cancer cell line that expresses sGC protein; host or cells: LNCap (human prostate cancer cell line)
T1 sequence (Q02108 1-690): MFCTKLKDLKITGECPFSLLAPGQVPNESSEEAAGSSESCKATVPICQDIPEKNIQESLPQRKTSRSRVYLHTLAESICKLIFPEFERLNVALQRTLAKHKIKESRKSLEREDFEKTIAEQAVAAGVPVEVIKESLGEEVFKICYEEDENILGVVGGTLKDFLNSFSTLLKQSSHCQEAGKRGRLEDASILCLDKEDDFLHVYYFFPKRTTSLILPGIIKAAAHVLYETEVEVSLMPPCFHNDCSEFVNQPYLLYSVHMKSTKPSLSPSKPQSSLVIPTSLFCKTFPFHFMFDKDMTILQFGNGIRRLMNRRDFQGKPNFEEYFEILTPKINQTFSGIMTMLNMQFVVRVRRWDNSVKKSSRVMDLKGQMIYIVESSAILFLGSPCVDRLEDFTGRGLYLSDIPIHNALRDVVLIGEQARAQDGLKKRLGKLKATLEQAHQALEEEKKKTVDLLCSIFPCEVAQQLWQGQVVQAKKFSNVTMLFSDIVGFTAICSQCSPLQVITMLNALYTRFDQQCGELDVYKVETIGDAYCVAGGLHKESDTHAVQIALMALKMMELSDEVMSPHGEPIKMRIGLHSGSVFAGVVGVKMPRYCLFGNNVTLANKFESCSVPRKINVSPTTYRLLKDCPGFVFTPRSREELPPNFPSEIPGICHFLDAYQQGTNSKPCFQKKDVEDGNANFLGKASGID
T1 sequence (Q02153 1-619): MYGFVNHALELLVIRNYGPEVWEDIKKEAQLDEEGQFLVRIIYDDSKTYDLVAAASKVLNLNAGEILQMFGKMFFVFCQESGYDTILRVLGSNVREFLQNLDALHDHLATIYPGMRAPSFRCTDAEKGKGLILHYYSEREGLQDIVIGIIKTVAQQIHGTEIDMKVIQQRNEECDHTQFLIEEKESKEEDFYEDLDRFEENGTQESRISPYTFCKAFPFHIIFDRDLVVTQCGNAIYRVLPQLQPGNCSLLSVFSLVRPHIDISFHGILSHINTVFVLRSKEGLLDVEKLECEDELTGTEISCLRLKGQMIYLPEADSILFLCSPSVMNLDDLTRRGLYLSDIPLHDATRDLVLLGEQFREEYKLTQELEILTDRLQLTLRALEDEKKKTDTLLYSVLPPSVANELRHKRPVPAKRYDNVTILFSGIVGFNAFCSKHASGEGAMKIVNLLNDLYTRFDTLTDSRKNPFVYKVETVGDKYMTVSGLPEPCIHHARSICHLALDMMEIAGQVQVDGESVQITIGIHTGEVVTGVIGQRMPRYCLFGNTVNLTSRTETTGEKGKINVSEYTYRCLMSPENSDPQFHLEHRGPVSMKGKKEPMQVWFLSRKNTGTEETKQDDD
Procedure: LNCap is a human prostate cancer cell line that expresses sGC protein. […] On the day of the detection, the cells were reselected in assay buffer (EBSS assay buffer+[…] of MgCl2+10 mM HEPES+0.05% BSA) at a density of 2 × 10^5/mL. 0.5 mM IBMX was added to prevent cGMP degradation.
The cells were pre-incubated with 20 µM diethylenetriamine/nitric oxide (DETA-NO) at 37°C for 30 minutes, and then different concentrations of the compounds were added. The mixture was further incubated at room temperature for 1 h. After the incubation was completed, the reaction was terminated, and intracellular cGMP levels were measured according to the instructions for the CisBio kit (Cisbio, 62GM2PEC).

[2] = Pharmacokinetic test in rats (inhalation administration); details: for Lung AUC0-t/plasma AUC0-t / Lung AUC0-t / Lung Cmax: SD rats, single inhalation dose 0.03 mg/kg; for Lung AUC0-t / Lung Cmax: lung tissue
Procedure: Experimental objective: In this experiment, the test compound was administered as a single dose via inhalation to SD rats, and the concentrations of the test compound in rat plasma and lungs were determined to evaluate the pharmacokinetic characteristics and bioavailability of the test compound in the rats.
Experimental animals: Male SD rats, 180-200 g, purchased from Chengdu Dossy Experimental Animals Co., Ltd.
Experimental method: On the day of the experiment, SD rats were randomly assigned into 6 groups according to body weight (for each compound), with 2 rats in each group. The rats were fasted with water available for 12 to 16 hours one day before the administration, and were fed 4 hours after the administration.
Plasma sampling: before and after the administration, blood was taken from the orbits of the rats under isoflurane anaesthesia, and placed in an EDTAK2 centrifuge tube. Centrifugation was performed at 6000 rpm at 4°C for 10 min, and the plasma was collected.
Lung tissue sampling: Animals from each group were euthanised by CO2 inhalation at 0.25, 0.5, 1, 4, 7 and 24 hours after the administration. Then, the animal was dissected to collect lung tissue, which was rinsed with physiological saline, dried with filter paper, weighed in the balance, kept on wet ice and homogenised within 2 hours using a 6-fold volume (i.e., 6 mL per 1 g of tissue) of homogenisation buffer (50% methanol-water).
Before analysis and detection, all samples were stored at -60°C. The samples were analysed quantitatively by LC-MS/MS.

[3] = target: T2, soluble guanylate cyclase (sGC) (Homo sapiens, UniProt Q02108+Q02153); assay: In vitro detection experiment for soluble guanylate cyclase (sGC) activity (TR-FRET);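 note: enzyme reaction started with GTP and run for 60 min at 37°C, followed by a 60 min detection step at room temperature, with EC50 obtained by nonlinear curve fitting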
T2 sequence (Q02108 1-690): T1 sequence (Q02108 1-690)
T2 sequence (Q02153 1-619): T1 sequence (Q02153 1-619)
Procedure: First, 100 nL of the compounds at different concentrations were transferred to a 384-well reaction plate (Greiner, Cat. No. 784075) using Echo 655 (LABCYTE, Cat # 655), with the final DMSO concentration of 1% in the reaction mixture; 2 µL of sGC (ICE, Cat. No. S2304F-H07SH2) was added to a 384-well reaction plate, and the mixture was centrifuged at 1000 rpm for 1 min; and then 1 µL of DETA NONOate was added, and the mixture was incubated at 37°C for10 min. After the incubation was completed, 2 µL of GTP was added, and the mixture was centrifuged at 1000 rpm for 1 min and reacted at 37°C for 60 min. In the reaction system, the final concentrations of sGC, GTP, and DETA NONOate were 1.5 nM, 5 µM, and 100 µM, respectively. After the reaction was completed, 5 µL of the test mixture (PerkinElmer, Cat. No. 62GM2PEG) was added and incubated at room temperature for 60 min. The TR-FRET signal (Ratio: 665/620 nm) was read using a microplate reader (BMG, Cat. No. PHERAstar FSX). A nonlinear regression curve was fitted using GraphPad Prism software, and EC50 values were calculated. Compound A (Example 1 in WO 2010065275) was used as a positive reference compound.

[4] = AE frequency, riociguat group, cited from earlier work
[5] = 12-week PATENT-1 study (placebo 2%)

| Structure (SMILES) | EC50 [1] [nM] | Lung AUC0-t [2] [ng·h/mL] | Lung Cmax [2] [ng/mL] | also measured |
| --- | --- | --- | --- | --- |
| CC(C)(Cc1csc(C2(C)C(=O)Nc3nc(-n4nc(Cc5ccccc5F)c5cc(Cl)ccc54)nc(N)c32)n1)C(=O)O (single isomer, unassigned) [Compound 32-1] | < 500 |  |  |  |
| CC(C)(Cc1csc([C@]2(C)C(=O)Nc3nc(-n4c(=O)n(CCC(F)(F)C(F)(F)F)c5cc(F)ccc54)nc(N)c32)n1)C(=O)O [Compound 31-1] | < 500 | 608 | 1183 | Lung AUC0-t/plasma AUC0-t [2]: 97.9 |
| CC(C)(Cc1csc([C@]2(C)C(=O)Nc3nc(-n4c(=O)n(CCC(F)(F)C(F)(F)F)c5c(F)cccc54)nc(N)c32)n1)C(=O)O [Compound 14-1] | < 500 |  |  |  |
| CC(C)(Cc1csc(C2(C)C(=O)Nc3nc(-n4nc(Cc5ccccc5F)c5c(F)cccc54)nc(N)c32)n1)C(=O)O (single isomer, unassigned) [Compound 41-1] | < 500 |  |  |  |
| CC(C)(Cc1csc([C@]2(C)C(=O)Nc3nc(-c4nn(CCC(F)(F)C(F)(F)F)c5ncccc45)nc(N)c32)n1)C(=O)O [Control compound 1, reference compound] | 3220 | 220 | 273 | Kp ([2]; male, SD, rat, lung and plasma, inhaled or intranasal, 0.03 mg/kg): 29.1 |
| CC(C)(Cc1csc([C@]2(C)C(=O)Nc3nc(-c4nc(CCC(F)(F)C(F)(F)F)n5cc(F)ccc45)nc(N)c32)n1)C(=O)O [Compound 45-1] |  | 4500 | 2846 | Lung AUC0-t/plasma AUC0-t [2]: 43.4 |
| CC(C)(Cc1csc(C2(C)C(=O)Nc3nc(-n4nc(CCC(F)(F)C(F)(F)F)c5cc(Cl)ccc54)nc(N)c32)n1)C(=O)O (single isomer, unassigned) [Compound 4-1] | < 500 | 2462 | 2352 | Lung AUC0-t/plasma AUC0-t [2]: 77.1 |
| CC(C)(Cc1csc([C@]2(C)C(=O)Nc3nc(-n4nc(CCC(F)(F)C(F)(F)F)c5cc(F)ccc54)nc(N)c32)n1)C(=O)O [Compound 17-1] | < 500 | 2021 | 1754 | Lung AUC0-t/plasma AUC0-t [2]: 48.4 |
| CC(C)(Cc1coc(C2(C)C(=O)Nc3nc(-n4c(=O)n(CC5CCCCC5)c5c(F)cccc54)nc(N)c32)n1)C(=O)O (centres unmarked) [Trifluoroacetate of compound 27] | < 500 |  |  | EC50 [3]: < 20 nM |
| CC(C)(Cc1csc(C2(C)C(=O)Nc3nc(-n4nc(Cc5ccccc5F)c5ncc(F)cc54)nc(N)c32)n1)C(=O)O (single isomer, unassigned) [Compound 35-1] | < 500 | 5432 | 2545 |  |
| CC(C)(Cc1csc(C2(C)C(=O)Nc3nc(-n4nc(CCC(F)(F)C(F)(F)F)c5c(F)cccc54)nc(N)c32)n1)C(=O)O (single isomer, unassigned) [Compound 43-1] | < 500 |  |  |  |
| CC(C)(Cc1csc(C2(C)C(=O)Nc3nc(-n4c(=O)n(Cc5ccccc5F)c5c(F)cccc54)nc(N)c32)n1)C(=O)O (single isomer, unassigned) [Compound 15-1] | < 500 |  |  |  |
| CC(C)(Cc1csc(C2(C)C(=O)Nc3nc(-n4nc(CCC(F)(F)C(F)(F)F)c5ncc(F)cc54)nc(N)c32)n1)C(=O)O (single isomer, unassigned) [Compound 37-1] |  | 3281 | 1729 |  |
| COC(=O)N(C)c1c(N)nc(-c2nn(Cc3ccccc3F)c3ncccc23)nc1N [riociguat, Riociguat] |  |  |  | constipation ([4]; 12-week PATENT-1 study (placebo 1%)): 5%; anaemia [4, 5]: 7%; gastrooesophageal reflux disease [4, 5]: 5%; hypotension ([4]; 12-week PATENT-1 study (placebo 4%)): 10%; vomiting ([4]; 12-week PATENT-1 study (placebo 7%)): 10%; diarrhoea ([4]; 12-week PATENT-1 study (placebo 8%)): 12%; dizziness ([4]; 12-week PATENT-1 study (placebo 13%)): 20% |
